In brackets after ≈: the same amount, converted by molar mass.
Columns and labels:
Assay in all cases: Antibacterial spectrum test, agar double dilution MIC
Assay type in all cases: cell-based
[1] = system: Klebsiella pneumoniae Esbls^−17-12
[2] = system: Pseudomonas aeruginosa 17-2; details: 172
[3] = system: Klebsiella pneumoniae Esbls^−17-11
[4] = system: Escherichia coli ATCC25922
[5] = system: Escherichia coli Esbls^−16-23
[6] = system: Escherichia coli Esbls^−16-24

MIC [1]: < 0.008 µg/mL
MIC [2]: 16 µg/mL (≈ 44.3 µM)
MIC [3]: 0.03 µg/mL (≈ 0.083 µM)
MIC [4]: < 0.008 µg/mL
MIC [5]: 16 µg/mL (≈ 44.3 µM)
MIC [6]: < 0.008 µg/mL
Structure (SMILES): C[C@H]1COc2c(N3CCN(C)CC3)c(F)cc3c(=O)c(C(=O)O)cn1c23 [Levofloxacin tablets, Levofloxacin]
